Assay results taken from paper PMC9820167, “Design and Synthesis of Conformationally Flexible Scaffold as Bitopic Ligands for Potent D3-Selective Antagonists” (International Journal of Molecular Sciences, 2022).
Read-outs that look alike come from different tables or passages of the source.

Columns and labels:
human D3 receptors [1] = molecular target: T1, human D3 receptors (Homo sapiens, UniProt P35462); test: β-arrestin recruitment assay (antagonist mode, competition with dopamine); type: cell-based; parameters: expressed in transfected cells; settings: for Emax: percentage of the maximum inhibition of dopamine at EC80 concentration, read-out: Imax (% Control); for IC50: potency for D3 receptors, CHO-K1 cells, vs 30 nM (EC80) dopamine, mean ± SD, three experiments, read-out: IC50
T1 sequence (P35462 whole entry): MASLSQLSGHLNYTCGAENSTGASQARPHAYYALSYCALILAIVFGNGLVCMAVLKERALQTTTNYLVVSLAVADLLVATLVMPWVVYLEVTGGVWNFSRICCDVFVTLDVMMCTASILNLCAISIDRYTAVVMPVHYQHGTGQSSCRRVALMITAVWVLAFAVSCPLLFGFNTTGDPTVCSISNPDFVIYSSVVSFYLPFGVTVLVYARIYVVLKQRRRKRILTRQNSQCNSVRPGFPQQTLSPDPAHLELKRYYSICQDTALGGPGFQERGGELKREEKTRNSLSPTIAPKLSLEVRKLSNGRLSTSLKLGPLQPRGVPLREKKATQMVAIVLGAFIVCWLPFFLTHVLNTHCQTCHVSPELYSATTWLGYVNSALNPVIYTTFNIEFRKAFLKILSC
Protocol: (§1) Two different assays were used to evaluate the properties of the analogs described above. The receptor binding affinity was measured by radioligand binding assays using [^125I]IABN with D2 or D3 receptors highly expressed HEK293 cells. The functional activity of the analogs was determined using a β-arrestin recruitment assay. The assay was initially conducted in agonist binding mode to confirm that they function as antagonists at the D3 receptor. Once this efficacy was confirmed, the assay was conducted in antagonist mode to determine the ability of the antagonist to compete with dopamine at the D3 receptor. The results of the antagonist mode assay are reported as IC50 values.
CHO-K1 cells which were overexpressed human D3 receptors were cultured in assaycomplete^TM cell culture kit 107. Cells were seeded at a density of 25,000 cells per well of 96-well plate, and incubated at 5% CO2, 37 °C. Two days later, test compounds were dissolved in DMSO, and diluted with 11-point series in phosphate-buffered saline (PBS). Prepared compounds were added to the cells, and it was incubated for 30 min at 5% CO2, 37 °C. Then, cells were treated with 30 nM (EC80) of dopamine, and the plate was incubated another 90 min. PathHunter^TM detection reagent was added to each well, and then plate was incubated for 80 min at RT in the dark. The chemiluminescent signal was measured by PerkinElmer Enspire plate reader (PerkinElmer, Boston, MA). Data were analyzed by Prism followed by non-linear regression.

human D3 receptors [2] = molecular target: T1, human D3 receptors; test: Radioligand binding assay with [125I]IABN, D3 receptor; parameters: expressed in transfected cells; host or cells: HEK293; settings: for Ki: [125I]IABN, D3 receptors expressed in HEK cells, mean ± SEM, three experiments, HCl salts, read-out: Ki ± SEM (nM) D3; for D2/D3: selectivity ratio of Ki D2 / Ki D3 (fold)
Protocol: as §1
(§2) Ki values for D2 and D3 receptors were measured using [^125I]IABN in human D2 and D3 receptors expressed in HEK cells, respectively. A filtration binding assay was used to characterize membrane-associated receptor binding properties. The details for the procedures were described in the literature.

D2 receptors = settings: cited from earlier work
human D2 receptors = molecular target: T2, human D2 receptors (Homo sapiens, UniProt P14416); test: Radioligand binding assay with [125I]IABN, D2 receptor; settings: [125I]IABN, D2 receptors expressed in HEK cells; mean ± SEM, three experiments; HCl salts; read-out: Ki ± SEM (nM) D2
T2 construct: expressed in transfected cells; host or cells: HEK293
T2 sequence (P14416 whole entry): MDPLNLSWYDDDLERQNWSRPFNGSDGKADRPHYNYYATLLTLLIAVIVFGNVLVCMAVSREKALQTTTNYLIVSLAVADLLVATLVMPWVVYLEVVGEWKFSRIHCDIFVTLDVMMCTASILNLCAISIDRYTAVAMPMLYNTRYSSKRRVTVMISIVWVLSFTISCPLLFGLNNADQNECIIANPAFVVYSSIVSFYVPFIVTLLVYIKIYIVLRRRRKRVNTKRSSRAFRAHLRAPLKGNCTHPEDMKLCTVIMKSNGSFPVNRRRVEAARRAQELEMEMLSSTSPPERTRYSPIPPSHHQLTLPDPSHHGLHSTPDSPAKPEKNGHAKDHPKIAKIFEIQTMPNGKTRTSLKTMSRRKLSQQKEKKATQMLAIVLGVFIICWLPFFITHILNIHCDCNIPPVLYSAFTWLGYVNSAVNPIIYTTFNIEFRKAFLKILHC
Protocol: Two different assays were used to evaluate the properties of the analogs described above. The receptor binding affinity was measured by radioligand binding assays using [^125I]IABN with D2 or D3 receptors highly expressed HEK293 cells. The functional activity of the analogs was determined using a β-arrestin recruitment assay. […] The results of the antagonist mode assay are reported as IC50 values.
as §2

SMILES	Emax (human D3 receptors [1]) [%]	IC50 (human D3 receptors [1]) [nM]	Ki (human D3 receptors [2]) [nM]	D2/D3 (human D3 receptors [2])	Ki (D2 receptors; read-out: Ki for D2/D3 receptors (D2)) [nM]	Ki (human D2 receptors) [nM]	Ki (D2 receptors; read-out: Ki D2) [nM]
CCN(CCCNC(=O)c1ccnc2ccccc12)CCNC(=O)c1cc(Br)cc(OC)c1OC [21b, N-(3-((2-(5-Bromo-2,3-dimethoxybenzamido)ethyl)(ethyl)amino)propyl)quinoline-4-carboxamide]	75.2 ± 4.8	19.6 ± 23.7	13.2 ± 0.5	39.8			
CCN1CCC[C@H]1CNC(=O)c1cc(Br)cc(OC)c1OC [[^11C]FLB457, FLB457]					0.02		
CCN(C)CCNC(=O)c1cc(Br)cc(OC)c1OC [compound 12, 5-Bromo-N-(2-(ethyl(methyl)amino)ethyl)-2,3-dimethoxybenzamide]			21.8 ± 5.1			89.2 ± 5.6	
CCN(CCCNC(=O)c1cccc(N(C)C)c1)CCNC(=O)c1cc(Br)cc(OC)c1OC [21h, 5-Bromo-N-(2-((3-(3-(dimethylamino)benzamido)propyl)(ethyl)amino)ethyl)-2,3-dimethoxybenzamide]	73.8 ± 14.9	4.1 ± 2.1	11.2 ± 1.4	22.1		248 ± 19	
C=CCN(CCCNC(=O)c1ccc(-c2cccs2)cc1)CCNC(=O)c1cc(Br)cc(OC)c1OC [20b, N-(2-(Allyl(3-(4-(thiophen-2-yl)benzamido)propyl)amino)ethyl)-5-bromo-2,3-dimethoxybenzamide]	101 ± 7.9	51.6 ± 40.8	5.8 ± 1	46.7		243 ± 15	
CCN(C)CCCNC(=O)c1ccc(-c2cccs2)cc1 [compound 14, N-(3-(Ethyl(methyl)amino)propyl)-4-(thiophen-2-yl)benzamide]			> 1000			> 1000	
CCN(CCCCSc1nnc(-c2ccccc2)n1C)CCNC(=O)c1cc(Br)cc(OC)c1OC [11a, 5-Bromo-N-(2-(ethyl(4-((4-methyl-5-phenyl-4H-1,2,4-triazol-3-yl)thio)butyl)amino)ethyl)-2,3-dimethoxybenzamide]			125 ± 2	2.7		342 ± 23	
CCN(CCCNC(=O)c1ccncc1)CCNC(=O)c1cc(Br)cc(OC)c1OC [21f, N-(3-((2-(5-Bromo-2,3-dimethoxybenzamido)ethyl)(ethyl)amino)propyl)isonicotinamide]	85.7 ± 13.1	2.7 ± 0.6	6.1 ± 0.6	53.7		327 ± 32	
CCN(CCCCN(C)C)CCNC(=O)c1cc(Br)cc(OC)c1OC [6c, 5-Bromo-N-(2-((4-(dimethylamino)butyl)(ethyl)amino)ethyl)-2,3-dimethoxybenzamide]	98 ± 5.6	> 1000	1630 ± 165	3.3		5420 ± 1040	
CCN(CCCCN(C)C)CCNC(=O)c1cc(CCCF)cc(OC)c1OC [6a, N-(2-((4-(Dimethylamino)butyl)(ethyl)amino)ethyl)-5-(3-fluoropropyl)-2,3-dimethoxybenzamide]	92.7 ± 5.4	> 1000	1760 ± 942	2.6		4560 ± 2450	
C=CCN1CCC[C@H]1CNC(=O)c1cc(CCCF)cc(OC)c1OC [fallypride]							0.02
CCN(CCCCCN(C)C)CCNC(=O)c1cc(Br)cc(OC)c1OC [6d, 5-Bromo-N-(2-((5-(dimethylamino)pentyl)(ethyl)amino)ethyl)-2,3-dimethoxybenzamide]	94 ± 6.4	152 ± 185	141 ± 26	3.2		449 ± 90	
CCN(CCCCCN(C)C)CCNC(=O)c1cc(CCCF)cc(OC)c1OC [6b, N-(2-((5-(Dimethylamino)pentyl)(ethyl)amino)ethyl)-5-(3-fluoropropyl)-2,3-dimethoxybenzamide]	98.4 ± 2.9	430 ± 467	1240 ± 438	2.3		2810 ± 571	
CCN(CCCCNC(=O)c1ccc(-c2cccs2)cc1)CCNC(=O)c1cc(Br)cc(OC)c1OC [9b, 5-Bromo-N-(2-(ethyl(4-(4-(thiophen-2-yl)benzamido)butyl)amino)ethyl)-2,3-dimethoxybenzamide]	70.8 ± 7.3	104 ± 136	8 ± 0.8	12.9		103 ± 14	
COc1cc(Br)cc(C(=O)NCCN(CCCNC(=O)c2ccc(-c3cccs3)cc2)Cc2ccc(F)cc2)c1OC [20c, 5-Bromo-N-(2-((4-fluorobenzyl)(3-(4-(thiophen-2-yl)benzamido)propyl)amino)ethyl)-2,3-dimethoxybenzamide]			299 ± 101	1.9		574 ± 170	
CCN(CCCCCSc1nnc(-c2ccccc2)n1C)CCNC(=O)c1cc(Br)cc(OC)c1OC [11b, 5-Bromo-N-(2-(ethyl(5-((4-methyl-5-phenyl-4H-1,2,4-triazol-3-yl)thio)pentyl)amino)ethyl)-2,3-dimethoxybenzamide]			22.2 ± 1.8	4.6		89.7 ± 3.6	
